Calls of active or inactive are those of the source. No rule for the calls is given here.
The compounds below were run against Insulin-degrading enzyme (Homo sapiens) (UniProt P14735) (assay: inhibition of recombinant IDE cleaving insulin – biochemical, TR-FRET, counter-screen for IDE inhibitor project, late-stage follow-up (AID 624065)). Details: recombinant IDE insulin degradation.
Chain of Insulin-degrading enzyme (Homo sapiens) (P14735 whole entry, looked up): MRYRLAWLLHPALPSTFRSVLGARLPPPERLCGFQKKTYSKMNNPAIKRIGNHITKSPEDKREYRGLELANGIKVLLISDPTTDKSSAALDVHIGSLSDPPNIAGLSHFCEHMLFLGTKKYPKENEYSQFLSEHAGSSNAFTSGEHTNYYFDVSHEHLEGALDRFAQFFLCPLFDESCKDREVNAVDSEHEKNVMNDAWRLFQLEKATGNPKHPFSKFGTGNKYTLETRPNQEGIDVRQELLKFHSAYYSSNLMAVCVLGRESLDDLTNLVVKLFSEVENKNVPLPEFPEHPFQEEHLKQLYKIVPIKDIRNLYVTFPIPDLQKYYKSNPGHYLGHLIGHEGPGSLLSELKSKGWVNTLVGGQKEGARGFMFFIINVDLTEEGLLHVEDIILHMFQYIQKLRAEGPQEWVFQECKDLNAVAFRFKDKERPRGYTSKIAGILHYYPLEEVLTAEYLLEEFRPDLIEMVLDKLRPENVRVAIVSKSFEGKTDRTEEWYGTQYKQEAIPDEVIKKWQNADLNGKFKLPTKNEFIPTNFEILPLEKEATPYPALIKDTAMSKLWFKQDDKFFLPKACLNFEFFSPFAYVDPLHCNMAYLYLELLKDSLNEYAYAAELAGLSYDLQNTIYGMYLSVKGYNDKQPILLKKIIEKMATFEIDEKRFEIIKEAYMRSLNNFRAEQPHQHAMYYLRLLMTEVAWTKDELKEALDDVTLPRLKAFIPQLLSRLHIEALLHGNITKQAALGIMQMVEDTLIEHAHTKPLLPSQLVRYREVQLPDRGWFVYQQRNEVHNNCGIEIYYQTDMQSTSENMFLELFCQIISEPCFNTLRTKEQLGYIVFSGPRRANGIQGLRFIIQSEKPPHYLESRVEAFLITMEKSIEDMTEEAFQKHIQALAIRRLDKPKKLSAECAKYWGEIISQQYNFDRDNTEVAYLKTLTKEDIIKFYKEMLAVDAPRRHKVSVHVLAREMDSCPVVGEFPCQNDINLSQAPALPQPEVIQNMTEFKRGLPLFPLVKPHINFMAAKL

IC50	SMILES
> 10 µM (inactive)	CCOc1ccc2[nH]c3c(N4CCN(C(=O)c5ccco5)CC4)ncnc3c2c1
> 10 µM (inactive)	Cc1ccc(C)c(N2C(=N)S/C(=C\c3ccc(-c4ccccc4C(=O)O)o3)C2=O)c1
> 10 µM (inactive)	COc1cc(/C=C2\SC(=S)N(NC(C)=O)C2=O)ccc1OC(=O)c1ccco1
> 10 µM (inactive)	Cc1c(CCC(=O)NCCCn2ccnc2)c(=O)oc2cc3oc4c(c3cc12)CCCC4
> 10 µM (inactive)	O=C(Nc1cccc(C(F)(F)F)c1)c1csc(-c2ccncc2)n1
> 10 µM (inactive)	O=C(Nc1ccc2oc(-c3cccnc3)nc2c1)c1ccc2c(c1)OCCO2
> 10 µM (inactive)	CCN(CC)c1ccc(/C=C2\C(=N)N3N=C(CC(=O)N4CCOCC4)SC3=NC2=O)cc1
4 µM	O=C(O)c1ccccc1NS(=O)(=O)c1cccc(-n2sc3ccccc3c2=O)c1
4 µM	O=c1c2ccccc2sn1-c1cc(S(=O)(=O)N2CCOCC2)ccc1N1CCOCC1
4.1 µM	COc1ccc(C(=O)N2CCN(C(=O)C3COc4ccccc4O3)CC2)cc1OC (stereo unspecified)
> 10 µM (inactive)	Cc1cccc(-c2nnc(SCc3nc4ccccc4[nH]3)n2Cc2ccco2)c1
> 10 µM (inactive)	O=C(C1CC1)N1CCN(c2ccnc3cc(Cl)ccc23)CC1
> 10 µM (inactive)	COc1cccc(-c2nnc(SCc3nc4ccccc4[nH]3)n2Cc2ccco2)c1
> 10 µM (inactive)	Clc1cccc(-c2nnc(SCc3nc4ccccc4[nH]3)n2Cc2ccco2)c1
> 10 µM (inactive)	Cn1c(=O)c(C(=O)CN2CCCc3ccccc32)c(N)n(Cc2ccccc2)c1=O
> 10 µM (inactive)	Nc1c(C(=O)Nc2nccs2)sc2nc(-c3cccs3)cc(C(F)(F)F)c12

Source: PubChem BioAssay AID624065 (The Scripps Research Institute Molecular Screening Center, 2012)
